Results as given in patent US7994168B2, “Hexahydro-pyrazino[1,2-A]pyrimidine-4,7-dione derivatives substituted with amino acids” (Sanofi-Aventis Deutschland GmbH, priority 2004, dated 2011).

Target: T1, MC4 (Homo sapiens, UniProt P32245)
T1 construct: expressed in transfected cells; host or cells: HEK293
Assay: In vitro functional assay with recombinant cells: agonist-induced changes in intracellular Ca2+ (FLIPR)
Assay type: cell-based
Details: recombinant HEK293 cells expressing MC4 and G-protein α-16; Fluo-4 Ca2+ FLIPR; 100% = 100 nM reference agonist MTII
Procedure: In Vitro Functional Assays with Recombinant Cells
Function-testing assays were carried out by determining the agonist-induced changes in the intracellular concentration of Ca^2+ in recombinant HEK293 cells which express both MC4 and G-protein α-16 by means of the FLIPR technique (“Fluorescence Imaging Plate Reader”, Molecular Devices Corp.).
For the investigations, cells were seeded into 96-well microtiter plates (50 000 cells/well) and allowed to grow overnight. The medium was removed and the cells were incubated in buffer which contained the fluorescent dye Fluo-4. After this loading with dye, the cells were washed, test substance was added, and changes in the intracellular Ca^2+ concentration were measured in the FLIPR apparatus. Results have been shown as percentage change relative to the control (0%: no test substance added; 100%: 100 nM reference agonist MTII added), and used to calculate dose/activity plots, with subsequent determination of EC50 values.

T1 sequence (P32245 whole entry): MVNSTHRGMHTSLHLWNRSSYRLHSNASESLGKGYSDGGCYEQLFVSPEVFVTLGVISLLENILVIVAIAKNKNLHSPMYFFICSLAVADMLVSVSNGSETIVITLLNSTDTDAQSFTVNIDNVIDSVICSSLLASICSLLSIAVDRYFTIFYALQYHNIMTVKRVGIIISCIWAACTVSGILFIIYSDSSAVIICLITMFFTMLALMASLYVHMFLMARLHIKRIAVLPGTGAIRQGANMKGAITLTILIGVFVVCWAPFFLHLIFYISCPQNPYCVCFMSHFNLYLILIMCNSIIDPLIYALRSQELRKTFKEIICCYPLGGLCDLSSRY

Q: For `CC(C)C(N)C(=O)N1CCCC1C(=O)NC1CN(S(=O)(=O)c2ccc(Cl)cc2Cl)C2CN(C(C)C)C(=O)C(Cc3ccc(F)c(F)c3)N2C1=O` (stereo not drawn) [Example 9, N-[1-(2,4-Dichlorobenzenesulfonyl)-6-(3,4-difluorobenzyl)-8-isopropyl-4,7-dioxooctahydropyrazino[1,2-a]pyrimidin-3-yl]-1-(2-amino-3-methylbutyryl)pyrrolidine-2-carboxamide], which EC50 is on record?
A: Its EC50 is 1.5 nM.

Q: Which EC50 does the source give for `CC(C)C(N)C(=O)N1CCCC1C(=O)NC1CN(S(=O)(=O)c2ccc(Cl)cc2Cl)C2CN(C(C)C)C(=O)C(Cc3ccc(Cl)cc3)N2C1=O` (stereo not drawn) [Example 1, N-[6-(4-Chlorobenzyl)-1-(2,4-dichlorobenzenesulfonyl)-8-isopropyl-4,7-dioxooctahydropyrazino[1,2-a]pyrimidin-3-yl]-1-(2-amino-3-methylbutyryl)pyrrolidin-2-carboxamide] here?
A: The EC50 was 0.4 nM.

Q: With `CC(C)C(N)C(=O)N1CCCC1C(=O)NC1CN(S(=O)(=O)c2ccc(Cl)cc2Cl)C2CN(C)C(=O)C(Cc3ccc(Cl)cc3)N2C1=O` (stereo not drawn) [Example 13] as the molecule, how does the EC50 read?
A: The EC50 was 4.7 nM.

Q: Which EC50 does the source give for `CCN1CC2N(C(=O)C(NC(=O)C3CCCN3C(=O)C(N)C(C)C)CN2S(=O)(=O)c2ccc(Cl)cc2Cl)C(Cc2ccc(Cl)cc2)C1=O` (stereo not drawn) [Example 12, N-[6-(4-Chlorobenzyl)-1-(2,4-dichlorobenzenesulfonyl)-8-ethyl-4,7-dioxooctahydropyrazino[1,2-a]pyrimidin-3-yl]-1-(2-amino-3-methylbutyryl)pyrrolidine-2-carboxamide] here?
A: The EC50 was 0.6 nM.

Q: `CC(C)CC(N)C(=O)N1CCCC1C(=O)NC1CN(S(=O)(=O)c2ccc(Cl)cc2Cl)C2CN(C(C)C)C(=O)C(Cc3ccc(Cl)cc3)N2C1=O` (stereo not drawn) [Example 4, N-[6-(4-Chlorobenzyl)-1-(2,4-dichlorobenzenesulfonyl)-8-isopropyl-4,7-dioxooctahydropyrazino[1,2-a]pyrimidin-3-yl]-1-(2-amino-4-methylpentanoyl)pyrrolidine-2-carboxamide] was tested. Which EC50 did it give?
A: The EC50 was 0.4 nM.

Q: With `CC(C)C(C(=O)N1CCCC1C(=O)NC1CN(S(=O)(=O)c2ccc(Cl)cc2Cl)C2CN(C(C)C)C(=O)C(Cc3ccc(Cl)cc3)N2C1=O)N(C)C` (stereo not drawn) [Example 5, N-[6-(4-Chlorobenzyl)-1-(2,4-dichlorobenzenesulfonyl)-8-isopropyl-4,7-dioxooctahydropyrazino[1,2-a]pyrimidin-3-yl]-1-(2-dimethylamino-3-methylbutyryl)pyrrolidine-2-carboxamide] as the molecule, how does the EC50 read?
A: The EC50 was 2 nM.

Q: How did the EC50 turn out when `CC(C)C(N)C(=O)N1CCCC1C(=O)NC1CN(S(=O)(=O)c2ccc(Cl)cc2Cl)C2CN(C(C)C)C(=O)C(Cc3ccc(F)cc3F)N2C1=O` (stereo not drawn) [Example 10, N-[1-(2,4-Dichlorobenzenesulfonyl)-6-(2,4-difluorobenzyl)-8-isopropyl-4,7-dioxooctahydropyrazino[1,2-a]pyrimidin-3-yl]-1-(2-amino-3-methylbutyryl)pyrrolidine-2-carboxamide] was run?
A: The EC50 was 5.7 nM.

Q: `CC(C)N1CC2N(C(=O)C(NC(=O)C3CCCN3C(=O)CN)CN2S(=O)(=O)c2ccc(Cl)cc2Cl)C(Cc2ccc(Cl)cc2)C1=O` (stereo not drawn) [Example 2, N-[6-(4-Chlorobenzyl)-1-(2,4-dichlorobenzenesulfonyl)-8-isopropyl-4,7-dioxooctahydropyrazino[1,2-a]pyrimidin-3-yl]-1-(2-aminoacetyl)pyrrolidine-2-carboxamide] was tested. Which EC50 did it give?
A: The EC50 was 0.6 nM.

Q: `CC(C)C(N)C(=O)N1CCCC1C(=O)NC1CN(S(=O)(=O)c2ccc(OC(F)(F)F)cc2Cl)C2CN(C(C)C)C(=O)C(Cc3ccc(Cl)cc3)N2C1=O` (stereo not drawn) [Example 7, N-[6-(4-Chlorobenzyl)-1-(2-chloro-4-trifluoromethoxybenzene-sulfonyl)-8-isopropyl-4,7-dioxooctahydropyrazino[1,2-a]-pyrimidin-3-yl]-1-(2-amino-3-methylbutyryl)pyrrolidine-2-carboxamide] was tested. Which EC50 did it give?
A: Its EC50 is 2.6 nM.

Q: For `CC(C)C(N)C(=O)N1CCCC1C(=O)NC1CN(S(=O)(=O)c2ccc(Cl)cc2Cl)C2CN(C)C(=O)C(Cc3ccc(F)c(F)c3)N2C1=O` (stereo not drawn) [Example 15, N-[1-(2,4-Dichlorobenzenesulfonyl)-6-(3,4-difluorobenzyl)-8-methyl-4,7-dioxooctahydropyrazino[1,2-a]pyrimidin-3-yl]-1-(2-amino-3-methylbutyryl)pyrrolidine-2-carboxamide], which EC50 is on record?
A: Its EC50 is 30.8 nM.

Q: `CC(C)C(N)C(=O)N1CCCC1C(=O)NC1CN(S(=O)(=O)c2ccc(Cl)cc2F)C2CN(C(C)C)C(=O)C(Cc3ccc(Cl)cc3)N2C1=O` (stereo not drawn) [Example 8, N-[6-(4-Chlorobenzyl)-1-(4-chloro-2-fluorobenzenesulfonyl)-8-isopropyl-4,7-dioxooctahydropyrazino[1,2-a]pyrimidin-3-yl]-1-(2-amino-3-methylbutyryl)pyrrolidine-2-carboxamide] was tested. Which EC50 did it give?
A: Its EC50 is 2.4 nM.

Q: How did the EC50 turn out when `CC(C)C(N)C(=O)N1CCCC1C(=O)NC1CN(S(=O)(=O)c2cc(F)ccc2Cl)C2CN(C(C)C)C(=O)C(Cc3ccc(Cl)cc3)N2C1=O` (stereo not drawn) [Example 6, N-[6-(4-Chlorobenzyl)-1-(2-chloro-5-fluorobenzenesulfonyl)-8-isopropyl-4,7-dioxooctahydropyrazino[1,2-a]pyrimidin-3-yl]-1-(2-amino-3-methylbutyryl)pyrrolidine-2-carboxamide] was run?
A: Its EC50 is 3.2 nM.

Q: For `CC(C)C(N)C(=O)N1CCCC1C(=O)NC1CN(S(=O)(=O)c2ccc(Cl)cc2Cl)C2CN(C3CC3)C(=O)C(Cc3cccnc3)N2C1=O` (stereo not drawn) [Example 17, N-[8-Cyclopropyl-1-(2,4-dichlorobenzenesulfonyl)-4,7-dioxo-6-pyridin-3-ylmethyloctahydropyrazino[1,2-a]pyrimidin-3-yl]-1-(2-amino-3-methylbutyryl)pyrrolidine-2-carboxamide], which EC50 is on record?
A: Its EC50 is 3490 nM.

Q: For `CC(C)C(N)C(=O)N1CCCC1C(=O)NC1CN(S(=O)(=O)c2ccc(Cl)cc2Cl)C2CN(C(C)C)C(=O)C(Cc3cccnc3)N2C1=O` (stereo not drawn) [Example 16, N-[1-(2,4-Dichlorobenzenesulfonyl)-8-isopropyl-4,7-dioxo-6-pyridin-3-ylmethyloctahydropyrazino[1,2-a]pyrimidin-3-yl]-1-(2-amino-3-methylbutyryl)pyrrolidine-2-carboxamide], which EC50 is on record?
A: Its EC50 is 717 nM.

Q: How did the EC50 turn out when `CCN1C[C@H]2N(C(=O)C(NC(=O)C3CCCN3C(=O)C(N)C(C)C)CN2S(=O)(=O)c2ccc(Cl)cc2Cl)[C@@H](Cc2ccc(F)c(F)c2)C1=O` (stereo partly drawn) [Example 14, N-[1-(2,4-dichlorobenzenesulfonyl)-6-(3,4-difluorobenzyl)-8-ethyl-4,7-dioxooctahydropyrazino[1,2-a]pyrimidin-3-yl]-1-(2-amino-3-methylbutryl)pyrrolidine-2-carboxamide] was run?
A: The EC50 was 1.6 nM.

Q: Which EC50 does the source give for `CC(C)C(N)C(=O)N1CCCC1C(=O)NC1CN(S(=O)(=O)c2ccc(Cl)cc2Cl)C2CN(CC(F)F)C(=O)C(Cc3ccc(Cl)cc3)N2C1=O` (stereo not drawn) [Example 11, N-[6-(4-Chlorobenzyl)-1-(2,4-dichlorobenzenesulfonyl)-8-(2,2-difluoroethyl)-4,7-dioxooctahydropyrazino[1,2-a]pyrimidin-3-yl]-1-(2-amino-3-methylbutyryl)pyrrolidine-2-carboxamide] here?
A: Its EC50 is 0.6 nM.

Q: For `CC(N)C(=O)N1CCCC1C(=O)NC1CN(S(=O)(=O)c2ccc(Cl)cc2Cl)C2CN(C(C)C)C(=O)C(Cc3ccc(Cl)cc3)N2C1=O` (stereo not drawn) [Example 3, N-[6-(4-Chlorobenzyl)-1-(2,4-dichlorobenzenesulfonyl)-8-isopropyl-4,7-dioxooctahydropyrazino[1,2-a]pyrimidin-3-yl]-1-(2-aminopropionyl)pyrrolidine-2-carboxamide], which EC50 is on record?
A: Its EC50 is 0.2 nM.

System: female NMRI mice
Assay: Anorectic effect: cumulative condensed milk consumption of fasted mice
Assay type: in vivo
Details: oral dose 30 mg/kg by gavage after 24 hours food withdrawal, milk consumption determined for 7 hours, compared with vehicle-treated control animals
Procedure: The anorectic effect was tested on female NMRI mice. After withdrawal of food for 24 hours, the test product was administered by gavage. The animals were housed singly with free access to drinking water and were offered condensed milk 30 minutes after administration of the product. The condensed milk consumption was determined every half hour for 7 hours, and the general wellbeing of the animals was observed. The measured milk consumption was compared with the vehicle-treated control animals.

Q: For `CC(C)C(N)C(=O)N1CCCC1C(=O)NC1CN(S(=O)(=O)c2ccc(Cl)cc2Cl)C2CN(C(C)C)C(=O)C(Cc3ccc(Cl)cc3)N2C1=O` (stereo not drawn) [Example 1, N-[6-(4-Chlorobenzyl)-1-(2,4-dichlorobenzenesulfonyl)-8-isopropyl-4,7-dioxooctahydropyrazino[1,2-a]pyrimidin-3-yl]-1-(2-amino-3-methylbutyryl)pyrrolidin-2-carboxamide], which “Reduction in the cumulative milk consumption as % of the control” value is on record?
A: Its value is 8%.
